These results are taken from patent US7271288B2, “Aromatic compounds” (Kyushu University, National University Corporation, priority 2002, dated 2007).

A short description of series [1]: Solubility observed when preparing samples for fluorescence measurement. The class given is physicochemical. The method, then: Gels were prepared from compounds 1 and 2 with cyclohexane (hereinafter referred to as cyclohexane gel(s)). The concentration of compound 1 or 2 in cyclohexane was adjusted to 5 mM. Chloroform solutions of compounds 1, 2 and 3 (5×10^−5 M) were also prepared. The fluorescence spectroscopic measurement was carried out for each gel. The excitation wavelength λex for the measurements was 340 nm.
As both compounds 1 and 2 were soluble in hot cyclohexane, solid samples were prepared by dissolving the compounds in cyclohexane followed by removing the solvent with a rotary evaporator at room temperature. Each of the solid samples thus prepared was then subjected to fluorescence spectroscopic measurement. As shown in FIG. 8 and FIG. 9, the difference in the spectra reflecting the difference in the gel was also observed in the solid state. Therefore, it was confirmed that the assembly structure of the gel is maintained even in the solid state.

Series [2] can be described thus: Gelation test. The class given is physicochemical. Details: key to gelation ability: I = insoluble; S = soluble; P = precipitate; G = gel; pG = partial gel. The conditions noted are these: for gelation ability: 10 mM, 30 minutes at room temperature. The method, then:
To a septum-capped test tube (i.d. 5 mm) were added compounds 1 or 2 and a solvent (100 μl) so that the concentration of the resultant solution was 10 mM and the solution was sonicated and heated with a heat gun until the solid was dissolved. After standing for 30 minutes at room temperature, the sample was turned upside down and judged visually. […] The samples with no observed gel formation were subjected to standing at a lower temperature for further judgment.

On to `CCCCCCCCCCCCNC(=O)COc1cc2c3cc(OCC(=O)NCCCCCCCCCCCC)c(OCC(=O)NCCCCCCCCCCCC)cc3c3cc(OCC(=O)NCCCCCCCCCCCC)c(OCC(=O)NCCCCCCCCCCCC)cc3c2cc1OCC(=O)NCCCCCCCCCCCC` [Compound 1], for which the solubility result in series [1] (hot cyclohexane) is given as “soluble”. The gelation ability result in series [2] (Benzene) is “S”; in series [2] (Carbon tetrachloride), “S”; in series [2] (Chloroform) it was “S”; in series [2] (Cyclohexane), “G”; in series [2] (Diphenyl ether), “S”; in series [2] (Ethanol), “I”. Moreover, the gelation ability result in series [2] (Ethyl acetate) is “I”; in series [2] (Hexane) it was “G”; in series [2] (Hexanol) it was “P”; in series [2] (Octane), “G”; in series [2] (Tetrahydrofuran), “S”; in series [2] (Toluene) it was “S”. Moreover, the gelation ability result in series [2] (p-Xylene) is given as “G”.
As for `CCCCNC(=O)COc1cc2c3cc(OCC(=O)NCCCC)c(OCC(=O)NCCCC)cc3c3cc(OCC(=O)NCCCC)c(OCC(=O)NCCCC)cc3c2cc1OCC(=O)NCCCC` [Compound 2], the solubility entry in series [1] (hot cyclohexane) is “soluble”. Moreover, the gelation ability result is “P” in series [2] (Benzene); “S” in series [2] (Carbon tetrachloride); “S” in series [2] (Chloroform); “pG” in series [2] (Cyclohexane); “S” in series [2] (Diphenyl ether); “I” in series [2] (Ethanol). Moreover, the gelation ability result in series [2] (Ethyl acetate) was “I”; in series [2] (Hexane), “I”; in series [2] (Hexanol), “I”; in series [2] (Octane), “I”; in series [2] (Tetrahydrofuran), “P”; in series [2] (Toluene), “P”. In addition, the gelation ability entry in series [2] (p-Xylene) is “P”.
With `CCCCCCCCCCCCOc1cc2c3cc(OCCCCCCCCCCCC)c(OCCCCCCCCCCCC)cc3c3cc(OCCCCCCCCCCCC)c(OCCCCCCCCCCCC)cc3c2cc1OCCCCCCCCCCCC` [Compound 3, reference compound], the solubility result in series [1] (chloroform) was “soluble”; in series [1] (cyclohexane) it was “soluble”; in series [2] (solvents not specified), “high solubility”. For the same compound, the gelation entry in series [2] (solvents not specified) is “no gelation was observed”.
